According to patent publication US12280043B2, “Sustained-release anesthetic compositions and methods of preparation thereof” (TLC Biopharmaceuticals, Inc., priority 2017, dated 2025):

Experiments:
[1] = pKa and ionisation state stated in text; format: physicochemical; conditions: at pH 6.0, calculation from pKa
paw incision mouse model = test: Anesthetic effect in a paw incision mouse model (von Frey mechanical threshold); format: in vivo, C57/BL6 mice; conditions: 0.18 mg ropivacaine per incision
Procedure: Wild type male C57/BL6 mice (8-week-old, Envigo) were used for evaluating the anesthetic efficacy after paw incision as described in Anesthesiology, 2003 October; 99 (4): 1023-7 and J. Neurosci Methods. 1994 July; 53 (1): 55-63. […] Baseline (T=−2 hours) mechanical (von Frey) thresholds of 32 mice were taken prior to surgery; baseline thresholds were measured on the mouse's left hind paw. All 32 mice received a plantar incision (5 mm long and […]) on their left hind paw. Two-hours post-surgery (T=0 hour), the mechanical threshold of each mouse was reassessed and the presence of mechanical allodynia in each mouse was confirmed. Thirty-two mice were randomized into 4 groups (8 mice per group). […] The 50% paw withdrawal threshold of each mouse was obtained using the up-down method at baseline time point (−2), and the designated time points (0, 1, 2, 3, 4, 5, 6, 8, and 24 hours) after SC injection treatment. […] The average 50% withdrawal threshold for each treatment group was graphed; data presented as a withdrawal threshold (g) were plotted against time (FIG. 2A). To account for variability among the baseline mechanical sensitivities of individual mice, each mouse's 50% paw withdrawal thresholds after surgery and treatment were normalized to its own baseline 50% withdrawal threshold (T=−2 hours). […]

[2] = Pharmacokinetic study after single SC injection; format: in vivo, Sprague-Dawley rats
Procedure: Jugular vein cannulated (JVC) female Sprague-Dawley rats were used for a pharmacokinetic (PK) study. The rats were housed in a holding room that operates on a 12-hr light/12-hr dark circadian cycle and that provides free access to water and food. […] Blood samples were collected at 15 min, 1 hour, 2 hours, 4 hours, 8 hours, 24 hours, 48 hours, and 72 hours post-injection. Plasma samples were obtained by centrifugation and were kept frozen at −80° C. until analysis. PK data obtained from the samples were analyzed using a noncompartmental model (WinNonlin® software).

[3] = female, Sprague-Dawley, rat, plasma, sc, 20 mg/kg

SMILES: CCCN1CCCC[C@H]1C(=O)Nc1c(C)cccc1C [Ropivacaine, ropivacaine]
- theoretically uncharged ropivacaine, of available ropivacaine [1]: 0.8%
- analgesia compared to vehicle group (paw incision mouse model; SC): some degree of analgesia
- withdrawal threshold at the first time point (paw incision mouse model; T=1 hour after SC injection, increased from 0.04 g): 0.22 g
- Cmax [2, 3]: 802 ± 208 ng/mL
- half-life [2, 3]: 186 ± 84 min
- AUC(0-t) ([2]; female, Sprague-Dawley, rat, plasma, sc, 20 mg/kg, read-out: AUC0-4): 4040 ± 632 ng·h/mL
- time until which ropivacaine could be detected in the plasma ([2]; rats, single SC, same dosage 20.0 mg/kg): ≤ 24 h
